# Test results: article PMC11879040, “Advancing systemic toxicity risk assessment: Evaluation of a NAM-based toolbox approach” (Toxicological Sciences, 2024)
# Legend:
# [1] = target: T1, Adenosine receptor A2a, ADORA2A (h) (Homo sapiens, UniProt P29274); assay: IPP ADORA2A binding (agonist radioligand); conditions: IPP screening at 100 uM; control NECA
# T1 construct: purchased Eurofins Cerep (SafetyScreen44-based IPP panel)
# [2] = system: Thyroid hormone receptor alpha, THRA (h); assay: IPP THRA coactivator recruitment (agonist); type: biochemical, human; conditions: 100 uM; agonist; T3; * denotes assay interference (2-Amino-6-chloro-4-nitrophenol, HC Red 3)
# [3] = system: Glutamate receptor ionotropic NMDA 1 non-selective, GRIN1 (r)
# human = conditions: 7 month human volunteer study; ref [19-22]; cited from earlier work
# [4] = system: Potassium Voltage-Gated Channel Kv non-selective, KCNQ1 (r); assay: IPP KCNQ1 binding (antagonist radioligand); design: species or system rat; conditions: IPP screening at 100 uM; control α-dendrotoxin
# HepG2 cells [5] = assay: Cell stress panel (CSP), 24 h, 8 concentrations, BIFROST global PoD; type: cell-based; conditions: HepG2; cell stress panel PoD
# Experimental: Compounds were tested using the previously developed cell stress panel ([Hatherell et al. 2020]) and the expanded biomarker panel outlined in Middleton et al. HepG2 cells were treated with all compounds for 24 h across 8 concentrations prior to biomarker analysis. The same plate layout and number of replicates (3 biological and 2 technical) were used as previously for each assay within the panel.
# [6] = system: Sodium channel protein type 5 subunit alpha (site 2), SCN5A (r); type: binding, rat
# [7] = system: Gamma-aminobutyric acid receptor subunit alpha-1 BZD site, GABRA1A (r); type: binding, rat
# [8] = human
# HepaRG cells = assay: High-throughput transcriptomics (HTTr, TempO-Seq), HepaRG, 24 h; type: cell-based, human; conditions: HepaRG
# Experimental: (§1) HepG2, HepaRG, and MCF7 cells were treated with each compound for 24 h across a dose range of 7 concentrations and lysed using TempO-Seq lysis buffer (BioSpyder Technologies, proprietary kit, see [Middleton et al. 2022] for method details). Sequencing was performed using TempO-Seq (BioClavis) version 2 of the human whole transcriptome panel and analyzed as described previously in Middleton et al.
# Tubulin (r) = assay: IPP Tubulin binding; design: species or system rat; conditions: 100 uM; ligand/control Colchicine
# MCF7 cells = assay: High-throughput transcriptomics (HTTr, TempO-Seq), MCF7, 24 h; type: cell-based, human; conditions: MCF-7
# Experimental: as §1
# monkey = conditions: lifetime monkey study, 500 mg/kg bw/day, at 23 years; ref [19-22]; cited from earlier work
# HepG2 cells [9] = assay: High-throughput transcriptomics (HTTr, TempO-Seq), HepG2, 24 h; type: cell-based, human; conditions: HepG2
# Experimental: as §1
# [10] = ref [19-22]; cited from earlier work
# T1 sequence (P29274 whole entry): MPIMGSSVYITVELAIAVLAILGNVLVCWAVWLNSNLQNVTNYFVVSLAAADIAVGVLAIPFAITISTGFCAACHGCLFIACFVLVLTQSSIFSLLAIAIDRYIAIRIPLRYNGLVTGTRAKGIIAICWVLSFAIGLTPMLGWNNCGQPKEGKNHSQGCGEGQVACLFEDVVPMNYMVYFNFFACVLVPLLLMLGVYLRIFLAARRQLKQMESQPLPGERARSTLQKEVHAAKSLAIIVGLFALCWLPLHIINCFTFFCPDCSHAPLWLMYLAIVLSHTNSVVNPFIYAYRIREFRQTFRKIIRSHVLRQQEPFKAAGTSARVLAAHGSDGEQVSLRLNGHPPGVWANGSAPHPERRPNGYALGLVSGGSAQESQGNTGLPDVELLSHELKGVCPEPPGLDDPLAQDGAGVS
smiles,measurement,setting,value
"O=S(=O)(O)NC1CCCCC1 [Cyclamate, Sodium cyclohexylsulfamate]",Specific binding,[1],1.0%
same,"IPP screening %, Coactivator recruitment",[2],2.0%
same,Specific binding,[3],-4.4%
same,dietary level at which persistent diarrhoea was noted,human,≥ 141 mg/kg bw/day
same,Specific binding,[4],0.6%
same,pod_cell_stress PoD,HepG2 cells [5],480.52 µM
same,Specific binding,[6],19.1%
same,Specific binding,[7],-8.6%
same,risk,[8],0
same,responding probes (with CDS > 0.5),HepaRG cells,7
same,"IPP screening %, Specific binding",Tubulin (r),21.0%
same,responding probes (with CDS > 0.5),MCF7 cells,18
same,male monkeys showing testicular effects,monkey,2/5
same,responding probes (with CDS > 0.5),HepG2 cells [9],22
same,ADI,[10],7 mg/kg bw/day
